According to ChEMBL document CHEMBL3102699, “Synthesis and evaluation of 4-substituted piperidines and piperazines as balanced affinity μ opioid receptor (MOR) agonist/δ opioid receptor (DOR) antagonist ligands” (Bioorg Med Chem Lett, 2014):

Tests used:
[1] = target: T1, Delta-type opioid receptor (Rattus norvegicus, UniProt P33533); test: Agonist activity at rat delta opioid receptor expressed in rat C6 cells assessed as stimulation of [35S]-GTPgammaS binding after 1 hr by liquid scintillation counting analysis; type: functional, cell-based
[2] = target: T1, Delta-type opioid receptor; test: Displacement of [3H]diprenorphine from rat delta opioid receptor expressed in rat C6 cell membranes after 1 hr by liquid scintillation counting analysis
[3] = target: T2, Mu-type opioid receptor (Rattus norvegicus, UniProt P33535); test: Displacement of [3H]diprenorphine from rat mu opioid receptor expressed in rat C6 cell membranes after 1 hr by liquid scintillation counting analysis
[4] = target: Mu-type opioid receptor (Rattus norvegicus) (UniProt P33535); test: Agonist activity at rat mu opioid receptor expressed in rat C6 cells assessed as stimulation of [35S]-GTPgammaS binding at 10 uM after 1 hr by liquid scintillation counting analysis relative to DAMGO; type: functional, cell-based
[5] = target: T3, Kappa-type opioid receptor (Homo sapiens, UniProt P41145); test: Agonist activity at human kappa opioid receptor expressed in CHO cells assessed as stimulation of [35S]-GTPgammaS binding at 10 uM after 1 hr by liquid scintillation counting analysis relative to U69,593; type: functional, cell-based
[6] = target: T3, Kappa-type opioid receptor; test: Displacement of [3H]diprenorphine from human kappa opioid receptor expressed in CHO cell membranes after 1 hr by liquid scintillation counting analysis
[7] = target: T3, Kappa-type opioid receptor; test: Agonist activity at human kappa opioid receptor expressed in CHO cells assessed as stimulation of [35S]-GTPgammaS binding after 1 hr by liquid scintillation counting analysis; type: functional, cell-based
[8] = target: T2, Mu-type opioid receptor; test: Agonist activity at rat mu opioid receptor expressed in rat C6 cells assessed as stimulation of [35S]-GTPgammaS binding after 1 hr by liquid scintillation counting analysis; type: functional, cell-based
[9] = target: Mu-type opioid receptor (Homo sapiens, UniProt P35372); test: Binding affinity to mu opioid receptor (unknown origin)
[10] = target: T3, Kappa-type opioid receptor; test: Binding affinity to kappa opioid receptor (unknown origin)
[11] = target: Delta-type opioid receptor (Homo sapiens, UniProt P41143); test: Binding affinity to delta opioid receptor (unknown origin)
Chain of Delta-type opioid receptor (Homo sapiens, UniProt P41143) (P41143 whole entry): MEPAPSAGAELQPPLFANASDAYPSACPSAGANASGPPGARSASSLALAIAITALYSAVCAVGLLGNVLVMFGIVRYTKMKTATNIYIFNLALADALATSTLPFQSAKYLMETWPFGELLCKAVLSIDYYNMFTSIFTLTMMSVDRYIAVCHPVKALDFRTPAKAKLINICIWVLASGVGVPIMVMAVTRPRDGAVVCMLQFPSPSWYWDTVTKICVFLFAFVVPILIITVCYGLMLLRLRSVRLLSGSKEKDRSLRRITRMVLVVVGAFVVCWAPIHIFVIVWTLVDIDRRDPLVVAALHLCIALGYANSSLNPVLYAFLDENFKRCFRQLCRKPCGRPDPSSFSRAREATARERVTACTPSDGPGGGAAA

T2 sequence (P33535 whole entry): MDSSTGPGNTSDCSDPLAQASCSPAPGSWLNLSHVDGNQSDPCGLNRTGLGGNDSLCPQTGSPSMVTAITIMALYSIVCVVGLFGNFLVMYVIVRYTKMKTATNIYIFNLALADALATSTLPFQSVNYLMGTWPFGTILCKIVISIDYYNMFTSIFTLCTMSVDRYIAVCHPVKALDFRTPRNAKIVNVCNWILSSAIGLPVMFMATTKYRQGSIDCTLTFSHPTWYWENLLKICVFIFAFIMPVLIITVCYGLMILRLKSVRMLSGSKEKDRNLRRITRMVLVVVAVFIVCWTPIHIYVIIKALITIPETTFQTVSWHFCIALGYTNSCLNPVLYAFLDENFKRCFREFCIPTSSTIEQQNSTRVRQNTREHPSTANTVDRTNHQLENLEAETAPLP
Chain of Mu-type opioid receptor (Rattus norvegicus) (P33535 whole entry): as above
T3 sequence (P41145 whole entry): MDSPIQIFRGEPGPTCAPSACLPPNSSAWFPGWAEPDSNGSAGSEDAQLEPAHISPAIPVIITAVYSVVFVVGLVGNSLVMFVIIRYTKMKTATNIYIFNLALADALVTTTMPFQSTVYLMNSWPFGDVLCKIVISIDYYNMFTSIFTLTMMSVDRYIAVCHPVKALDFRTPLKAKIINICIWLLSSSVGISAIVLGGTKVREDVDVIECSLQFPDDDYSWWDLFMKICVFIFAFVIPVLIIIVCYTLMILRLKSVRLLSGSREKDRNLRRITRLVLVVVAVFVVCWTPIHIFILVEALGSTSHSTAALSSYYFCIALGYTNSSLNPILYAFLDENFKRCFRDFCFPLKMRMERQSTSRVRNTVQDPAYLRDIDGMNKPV
T1 sequence (P33533 whole entry): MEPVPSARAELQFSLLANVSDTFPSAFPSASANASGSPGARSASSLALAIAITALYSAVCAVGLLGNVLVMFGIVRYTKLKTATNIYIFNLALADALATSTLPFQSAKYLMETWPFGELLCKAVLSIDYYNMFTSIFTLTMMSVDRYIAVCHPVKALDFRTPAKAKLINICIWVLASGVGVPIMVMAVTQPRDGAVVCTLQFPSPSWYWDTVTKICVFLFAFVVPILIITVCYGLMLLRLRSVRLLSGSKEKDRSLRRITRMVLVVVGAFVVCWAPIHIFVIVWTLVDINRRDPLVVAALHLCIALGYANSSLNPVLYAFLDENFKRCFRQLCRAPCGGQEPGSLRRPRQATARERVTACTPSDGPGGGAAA
Chain of Mu-type opioid receptor (Homo sapiens, UniProt P35372) (P35372 whole entry): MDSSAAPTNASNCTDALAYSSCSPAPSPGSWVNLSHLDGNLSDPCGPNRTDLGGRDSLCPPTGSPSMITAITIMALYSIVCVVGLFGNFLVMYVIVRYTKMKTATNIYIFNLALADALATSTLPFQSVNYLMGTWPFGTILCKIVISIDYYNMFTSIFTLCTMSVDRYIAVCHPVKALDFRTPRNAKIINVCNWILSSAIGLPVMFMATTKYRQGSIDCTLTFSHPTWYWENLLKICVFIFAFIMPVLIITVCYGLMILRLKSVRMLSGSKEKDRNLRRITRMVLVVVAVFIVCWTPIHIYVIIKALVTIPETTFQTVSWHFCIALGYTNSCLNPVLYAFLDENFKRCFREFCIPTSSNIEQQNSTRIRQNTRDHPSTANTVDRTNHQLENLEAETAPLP

Row | Compound | EC50 [1] | Ki [2] [µM] | Ki [3] [µM] | %max [4] [%] | %max [5] [%] | Ki [6] [µM] | EC50 ([7]; read-out: EC50) [µM] | EC50 ([8]; read-out: EC50) [µM] | EC50 ([7]; cho) | Ki [9] [µM] | Ki [10] [µM] | Ki [11] [µM] | EC50 ([8]; c6)
1 | Cc1cc(O)cc(C)c1C[C@H](N)C(=O)N1CCN(CCCCCc2ccccc2)CC1 | Not Active | 0.0069 | 0.00042 | 42 | 12 | 0.039 | 0.66 | 0.053 |  |  |  |  | 
2 | Cc1cc(O)cc(C)c1C[C@H](N)C(=O)N1CCN(CCCc2cccc3ccccc23)CC1 | Not Active |  |  |  |  |  |  |  | Not Active |  |  |  | 
3 | Cc1cc(O)cc(C)c1C[C@H](N)C(=O)N1CCCc2ccccc21 |  |  |  |  |  |  |  |  |  | 0.0258 | 0.0365 | 0.033 | 
4 | Cc1cc(O)cc(C)c1C[C@H](N)C(=O)N1CCC(Cc2ccccc2)CC1 | Not Active | 0.0078 | 0.0014 |  |  | 0.14 |  |  | Not Active |  |  |  | Not Active
5 | Cc1cc(O)cc(C)c1C[C@H](N)C(=O)N1CCC(CCCc2ccccc2)CC1 | Not Active | 0.012 | 0.002 | 26 |  | 0.11 |  | 0.119 | Not Active |  |  |  | 
6 | Cc1cc(O)cc(C)c1C[C@H](N)C(=O)N1CCN(CCCc2ccccc2)CC1 | Not Active | 0.036 | 0.0038 | 23 |  | 0.25 |  | 0.15 | Not Active |  |  |  | 
7 | Cc1cc(O)cc(C)c1C[C@H](N)C(=O)N1CCN(C/C=C/c2cccc3ccccc23)CC1 | Not Active |  |  |  |  |  |  |  | Not Active |  |  |  | Not Active
8 | Cc1cc(O)cc(C)c1C[C@H](N)C(=O)N1CCC(Cc2ccccc2)c2ccccc21 (stereo partly specified) | Not Active | 0.014 | 0.029 |  |  | 0.31 |  |  | Not Active |  |  |  | Not Active
9 | Cc1cc(O)cc(C)c1C[C@H](N)C(=O)N1CCN(CCCCc2ccccc2)CC1 | Not Active | 0.0066 | 0.00045 | 43 |  | 0.078 |  | 0.064 | Not Active |  |  |  | 
10 | Cc1cc(O)cc(C)c1C[C@H](N)C(=O)N1CCN(CCC(c2ccccc2)c2ccccc2)CC1 | Not Active | 0.021 | 0.0011 |  |  | 0.15 |  |  | Not Active |  |  |  | Not Active
11 | Cc1cc(O)cc(C)c1C[C@H](N)C(=O)N1CCN(C/C=C\Cc2ccccc2)CC1 | Not Active | 0.028 | 0.0003 | 49 |  |  |  | 0.041 | Not Active |  |  |  | 
12 | Cc1cc(O)cc(C)c1C[C@H](N)C(=O)N1CCN(C/C=C/Cc2ccccc2)CC1 | Not Active | 0.023 | 0.00029 | 36 |  |  |  | 0.02 |  |  |  |  | 
